We go through nine molecules from patent US20230017045A1, “PYRIDINE AND PYRIMIDINE CARBOXYLATE HERBICIDES AND METHODS OF USE THEREOF” (Dow AgroSciences LLC, priority 2017, published 2023).

Like-named read-outs stand apart in the source and are kept apart here.

The assay relates to test plant species. The assay can be described thus: Post-emergent herbicidal activity test (greenhouse, foliar spray, visual growth reduction). In kind it is in vivo. Conditions: post-emergence, 336 h, 140 g ai/ha. In outline:
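Greenhouse plants at first–second true leaf stage sprayed overhead at 187 L/ha with compound in acetone/water/isopropanol/DMSO/crop oil/X-77 carrier; controls received solvent blank. Injury rated visually after 14 d on a 0–100% scale versus untreated and control plants, converted to growth reduction.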

[1] abbreviates: ECHCG: barnyardgrass (Echinochloa crus-galli), 14 days after application, read-out: Visual Growth Reduction (%) 14 Days After Application, ECHCG.
The mark [2] stands for this setting: IPOHE: ivy-leaf morning glory (Ipomoea hederacea), 14 days after application, read-out: Visual Growth Reduction (%) 14 Days After Application, IPOHE.
[3] abbreviates: KCHSC: kochia (Bassia scoparia), 14 days after application, read-out: Visual Growth Reduction (%) 14 Days After Application, KCHSC.
Where [4] appears, read: ORYSA: rice (Oryza sativa), 14 days after application, read-out: Visual Growth Reduction (%) 14 Days After Application, ORYSA.
The mark [5] stands for this setting: SETFA: giant foxtail (Setaria faberi), 14 days after application, read-out: Visual Growth Reduction (%) 14 Days After Application, SETFA.
Where [6] appears, read: SORVU: grain sorghum (Sorghum vulgare), 14 days after application, read-out: Visual Growth Reduction (%) 14 Days After Application, SORVU.
The mark [7] stands for this setting: STEME: common chickweed (Stellaria media), 14 days after application, read-out: Visual Growth Reduction (%) 14 Days After Application, STEME.
The mark [8] stands for this setting: TRZAS: wheat, spring (Triticum aestivum), 14 days after application, read-out: Visual Growth Reduction (%) 14 Days After Application, TRZAS.
Setting [9] is: blackgrass (Alopecurus myosuroides), 14 Days After Application, read-out: Visual Growth Reduction (%) ALOMY.
Where [10] appears, read: crabgrass (Digitaria sanguinalis), 14 Days After Application, read-out: Visual Growth Reduction (%) DIGSA.
The mark [11] stands for this setting: lambsquarters (Chenopodium album), 14 Days After Application, read-out: Visual Growth Reduction (%) CHEAL.
Setting [12] is: redroot pigweed (Amaranthus retroflexus), 14 Days After Application, read-out: Visual Growth Reduction (%) AMARE.
Setting [13] is: wild oat (Avena fatua), 14 Days After Application, read-out: Visual Growth Reduction (%) AVEFA.
Where [14] appears, read: yellow nutsedge (Cyperus esculentus), 14 Days After Application, read-out: Visual Growth Reduction (%) CYPES.
The mark [15] stands for this setting: canada thistle (Cirsium arvense), 14 Days After Application, read-out: Visual Growth Reduction (%) CIRAR.

With `COC(=O)c1nc(-c2ccc(Cl)c3ccccc23)c(F)cc1Cl` [F346, Methyl 3-chloro-6-(4-chloronaphthalen-1-yl)-5-fluoropicolinate], the pest or weed control at 140 g/ha lay within 0 to 29% under setting [1]; 30 to 44% under setting [2]; 0 to 29% under setting [3]; 0 to 29% under setting [4]; 0 to 29% under setting [5]; 0 to 29% under setting [6]. Also, the pest or weed control at 140 g/ha fell in the range of 0 to 29% under setting [7]; 0 to 29% under setting [8]; 0 to 29% under setting [9]; 0 to 29% under setting [10]; 0 to 29% under setting [11]; 0 to 29% under setting [12]. Besides, the pest or weed control at 140 g/ha was in the range of 0 to 29% under setting [13] and 0 to 29% under setting [14].
For `COc1nc(C(F)(F)F)ccc1-c1nc(C(=O)O)c(Cl)cc1F` [F347, 5-Chloro-3-fluoro-2′-methoxy-6′-(trifluoromethyl)-[2,3′-bipyridine]-6-carboxylic acid], the pest or weed control at 140 g/ha under setting [1] was in the range of 85 to 94%; the pest or weed control at 140 g/ha under setting [2] was 95 to 100%; the pest or weed control at 140 g/ha under setting [3] is 85 to 94%; the pest or weed control at 140 g/ha under setting [4] lay in the range of 30 to 44%; the pest or weed control at 140 g/ha under setting [5] was 85 to 94%; the pest or weed control at 140 g/ha under setting [6] fell in the range of 85 to 94%. Moreover, the pest or weed control at 140 g/ha under setting [7] lay in the range of 0 to 29%; the pest or weed control at 140 g/ha under setting [8] lay in the range of 75 to 84%; the pest or weed control at 140 g/ha under setting [9] fell in the range of 60 to 74%; the pest or weed control at 140 g/ha under setting [15] lay in the range of 85 to 94%; the pest or weed control at 140 g/ha under setting [10] was in the range of 95 to 100%; the pest or weed control at 140 g/ha under setting [11] is 95 to 100%. Also, the pest or weed control at 140 g/ha fell in the range of 95 to 100% under setting [12], 60 to 74% under setting [13] and 0 to 29% under setting [14].
`COC(=O)c1nc(-c2ccc(N)cc2F)c(F)cc1Cl` [F348, Methyl 6-(4-amino-2-fluorophenyl)-3-chloro-5-fluoropicolinate]: the pest or weed control at 140 g/ha was in the range of 0 to 29% under setting [1]; 0 to 29% under setting [2]; 0 to 29% under setting [3]; 0 to 29% under setting [4]; 0 to 29% under setting [5]; 0 to 29% under setting [6]. Besides, the pest or weed control at 140 g/ha lay within 0 to 29% under setting [7]; 0 to 29% under setting [8]; 0 to 29% under setting [9]; 0 to 29% under setting [10]; 0 to 29% under setting [11]; 0 to 29% under setting [12]. The pest or weed control at 140 g/ha by setting is: under setting [13], 0 to 29%; under setting [14], 0 to 29%.
`O=C(O)c1nc(-c2cc(Br)c(C(F)(F)F)cc2Cl)ccc1Cl` [F349, 6-(5-Bromo-2-chloro-4-(trifluoromethyl)phenyl)-3-chloropicolinic acid]: the pest or weed control at 140 g/ha lay within 0 to 29% under setting [1]; 95 to 100% under setting [2]; 85 to 94% under setting [3]; 0 to 29% under setting [4]; 75 to 84% under setting [5]; 85 to 94% under setting [6]. Further, the pest or weed control at 140 g/ha reads like this: under setting [7], 0 to 29%; under setting [8], 85 to 94%; under setting [9], 60 to 74%; under setting [10], 75 to 84%; under setting [11], 95 to 100%; under setting [12], 60 to 74%. Further, the pest or weed control at 140 g/ha was 60 to 74% under setting [13] and 0 to 29% under setting [14].
On to `C=Cc1cc(-c2nc(C(=O)O)c(Cl)cc2F)c(Cl)cc1C(F)(F)F` [F350, 3-Chloro-6-(2-chloro-4-(trifluoromethyl)-5-vinylphenyl)-5-fluoropicolinic acid], for which the pest or weed control at 140 g/ha is 0 to 29% under setting [1]; 85 to 94% under setting [2]; 85 to 94% under setting [3]; 0 to 29% under setting [4]; 0 to 29% under setting [5]; 0 to 29% under setting [6]. The pest or weed control at 140 g/ha under setting [7] fell in the range of 0 to 29%; the pest or weed control at 140 g/ha under setting [8] lay in the range of 0 to 29%; the pest or weed control at 140 g/ha under setting [9] was in the range of 0 to 29%; the pest or weed control at 140 g/ha under setting [10] was 30 to 44%; the pest or weed control at 140 g/ha under setting [11] is 60 to 74%; the pest or weed control at 140 g/ha under setting [12] is 30 to 44%. The pest or weed control at 140 g/ha runs as follows: under setting [13], 0 to 29%; under setting [14], 0 to 29%.
As to `COC(=O)c1nc(-c2ccc(C#N)cc2OC)c(F)cc1Cl` [F351, Methyl 3-chloro-6-(4-cyano-2-methoxyphenyl)-5-fluoropicolinate], the pest or weed control at 140 g/ha by setting is: under setting [1], 30 to 44%; under setting [2], 95 to 100%; under setting [3], 30 to 44%; under setting [4], 0 to 29%; under setting [5], 75 to 84%; under setting [6], 75 to 84%. Further, the pest or weed control at 140 g/ha is, setting by setting: under setting [7], 0 to 29%; under setting [8], 0 to 29%; under setting [9], 0 to 29%; under setting [15], 0 to 29%; under setting [10], 30 to 44%; under setting [11], 75 to 84%. Further, the pest or weed control at 140 g/ha under setting [12] was 60 to 74%, the pest or weed control at 140 g/ha under setting [13] was 0 to 29% and the pest or weed control at 140 g/ha under setting [14] was 0 to 29%.
On to `O=C(O)c1nc(-c2ccc(C(F)(F)F)cc2Cl)c(F)cc1Cl` [F352, 3-chloro-6-(2-chloro-4-(trifluoromethyl)phenyl)-5-fluoropicolinic acid], for which the pest or weed control at 140 g/ha under setting [1] was in the range of 95 to 100%; the pest or weed control at 140 g/ha under setting [2] lay within 95 to 100%; the pest or weed control at 140 g/ha under setting [3] was 85 to 94%; the pest or weed control at 140 g/ha under setting [4] was in the range of 85 to 94%; the pest or weed control at 140 g/ha under setting [5] is 95 to 100%; the pest or weed control at 140 g/ha under setting [6] was 95 to 100%. Further, the pest or weed control at 140 g/ha by setting is: under setting [7], 60 to 74%; under setting [8], 95 to 100%; under setting [9], 75 to 84%; under setting [15], 95 to 100%; under setting [10], 95 to 100%; under setting [11], 95 to 100%. Moreover, the pest or weed control at 140 g/ha under setting [12] is 95 to 100%, the pest or weed control at 140 g/ha under setting [13] fell in the range of 85 to 94% and the pest or weed control at 140 g/ha under setting [14] lay in the range of 0 to 29%.
As to `COC(=O)c1nc(-c2cc3c(cc2OC)OC(F)(F)O3)ccc1Cl` [F353, Methyl 3-chloro-6-(2,2-difluoro-6-methoxybenzo[d][1,3]dioxol-5-yl)picolinate], the pest or weed control at 140 g/ha under setting [1] fell in the range of 0 to 29%; the pest or weed control at 140 g/ha under setting [2] fell in the range of 95 to 100%; the pest or weed control at 140 g/ha under setting [3] is 0 to 29%; the pest or weed control at 140 g/ha under setting [4] is 0 to 29%; the pest or weed control at 140 g/ha under setting [5] lay within 0 to 29%; the pest or weed control at 140 g/ha under setting [6] lay in the range of 45 to 59%. Besides, the pest or weed control at 140 g/ha under setting [7] was in the range of 0 to 29%; the pest or weed control at 140 g/ha under setting [8] lay within 0 to 29%; the pest or weed control at 140 g/ha under setting [9] was 0 to 29%; the pest or weed control at 140 g/ha under setting [15] fell in the range of 0 to 29%; the pest or weed control at 140 g/ha under setting [10] lay within 0 to 29%; the pest or weed control at 140 g/ha under setting [11] is 45 to 59%. For the same molecule, the pest or weed control at 140 g/ha lay within 0 to 29% under setting [12], 0 to 29% under setting [13] and 0 to 29% under setting [14].
For `COC(=O)c1nc(-c2ccc(O)cc2Cl)ccc1Cl` [F355, methyl 3-chloro-6-(2-chloro-4-hydroxyphenyl)picolinate], the pest or weed control at 140 g/ha fell in the range of 0 to 29% under setting [1]; 0 to 29% under setting [2]; 0 to 29% under setting [3]; 0 to 29% under setting [4]; 0 to 29% under setting [5]; 0 to 29% under setting [6]. Also, the pest or weed control at 140 g/ha by setting is: under setting [7], 0 to 29%; under setting [8], 0 to 29%; under setting [9], 0 to 29%; under setting [15], 75 to 84%; under setting [10], 0 to 29%; under setting [11], 0 to 29%. The pest or weed control at 140 g/ha by setting is: under setting [12], 0 to 29%; under setting [13], 0 to 29%; under setting [14], 0 to 29%.
